This note sets out measurements from US12539292B2, “BRM targeting compounds and associated methods of use” (Arvinas Operations, Inc., priority 2018, dated 2026).

Read-outs that look alike come from different tables or passages of the source. Some results are limits rather than exact numbers.

Broadly, the Dmax is the largest share of the target that was removed. One may read the DC50 as the concentration giving 50% degradation.

The test deals with T1, BRM (Homo sapiens, UniProt P51531).
T1 construct: In-Cell Western Screen of BRM Degradation in SW1573 Cells; endogenous in cells; host or cells: SW1573
T1 sequence (P51531 whole entry): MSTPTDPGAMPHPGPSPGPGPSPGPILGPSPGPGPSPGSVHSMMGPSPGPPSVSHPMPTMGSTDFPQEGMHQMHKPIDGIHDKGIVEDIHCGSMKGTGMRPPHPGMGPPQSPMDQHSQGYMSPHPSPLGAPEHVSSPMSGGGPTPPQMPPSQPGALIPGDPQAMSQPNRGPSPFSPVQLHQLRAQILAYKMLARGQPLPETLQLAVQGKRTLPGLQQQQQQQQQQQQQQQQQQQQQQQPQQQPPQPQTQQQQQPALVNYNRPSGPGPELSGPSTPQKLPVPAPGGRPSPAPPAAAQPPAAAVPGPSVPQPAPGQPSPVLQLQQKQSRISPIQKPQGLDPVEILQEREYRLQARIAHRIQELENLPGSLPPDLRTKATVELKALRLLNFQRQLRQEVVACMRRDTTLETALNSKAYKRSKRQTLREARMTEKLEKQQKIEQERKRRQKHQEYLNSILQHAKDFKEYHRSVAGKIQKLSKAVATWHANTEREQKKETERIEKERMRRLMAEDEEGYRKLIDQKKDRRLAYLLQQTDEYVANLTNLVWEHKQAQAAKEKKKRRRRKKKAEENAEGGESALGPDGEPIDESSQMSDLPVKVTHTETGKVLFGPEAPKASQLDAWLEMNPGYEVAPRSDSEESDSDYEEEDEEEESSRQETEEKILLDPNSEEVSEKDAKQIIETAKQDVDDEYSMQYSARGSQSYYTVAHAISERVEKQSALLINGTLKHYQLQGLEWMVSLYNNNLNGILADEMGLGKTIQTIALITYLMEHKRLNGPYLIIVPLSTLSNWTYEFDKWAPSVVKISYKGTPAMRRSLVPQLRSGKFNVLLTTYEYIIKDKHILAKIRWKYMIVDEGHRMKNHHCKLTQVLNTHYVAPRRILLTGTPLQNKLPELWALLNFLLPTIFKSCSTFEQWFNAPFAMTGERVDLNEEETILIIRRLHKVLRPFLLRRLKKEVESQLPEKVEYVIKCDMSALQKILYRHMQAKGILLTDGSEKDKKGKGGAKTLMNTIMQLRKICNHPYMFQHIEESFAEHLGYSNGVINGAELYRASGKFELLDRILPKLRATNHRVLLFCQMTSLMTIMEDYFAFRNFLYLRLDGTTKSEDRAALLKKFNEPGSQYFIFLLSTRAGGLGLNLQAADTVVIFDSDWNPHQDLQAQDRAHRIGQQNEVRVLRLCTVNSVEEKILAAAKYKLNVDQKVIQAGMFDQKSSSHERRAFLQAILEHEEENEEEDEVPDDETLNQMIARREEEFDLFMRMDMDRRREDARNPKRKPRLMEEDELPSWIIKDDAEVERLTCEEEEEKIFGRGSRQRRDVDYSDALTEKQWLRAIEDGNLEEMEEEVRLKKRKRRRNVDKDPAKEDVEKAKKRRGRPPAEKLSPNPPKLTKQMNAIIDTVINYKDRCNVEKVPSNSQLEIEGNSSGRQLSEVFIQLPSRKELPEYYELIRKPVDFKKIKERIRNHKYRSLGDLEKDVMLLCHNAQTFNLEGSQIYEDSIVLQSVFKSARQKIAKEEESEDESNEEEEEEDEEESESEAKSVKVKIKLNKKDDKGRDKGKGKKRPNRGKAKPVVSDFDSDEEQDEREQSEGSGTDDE
The experiment in a line: In-cell Western screen of BRM degradation in SW1573 cells (Dmax and DC50). Type of test: cell-based. The method, boiled down: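 Adherent SW1573 cultures exposed to test compounds for 18-20 h were processed for in-cell Western after PFA fixation and detergent permeabilization. BRM degradation was reported as Dmax and DC50.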

Where [1] appears, read: BRM degradation, SW1573 cells, Table 2D, read-out: *DC50.
Setting [2] is: BRM degradation, SW1573 cells, read-out: DC50.

For the compound `COc1nc(-c2scnc2C)c(F)cc1[C@H](C)NC(=O)[C@@H]1C[C@@H](O)CN1C(=O)[C@@H](c1cc(OCCN2CCC(O[C@H]3C[C@H](Oc4cc(N5C6CCC5CN(c5cc(-c7ccccc7O)nnc5N)C6)ccn4)C3)CC2)no1)C(C)C` [compound 562, (2S,4R)-1-((2R)-2-(3-(2-(4-((1r,3R)-3-((4-(3-(3-amino-6-(2-hydroxyphenyl)pyridazin-4-yl)-3,8-diazabicyclo[3.2.1]octan-8-yl)pyridin-2-yl)oxy)cyclobutoxy)piperidin-1-yl)ethoxy)isoxazol-5-yl)-3-methylbutanoyl)-N-((S)-1-(5-fluoro-2-methoxy-6-(4-methylthiazol-5-yl)pyridin-3-yl)ethyl)-4-hydroxypyrrolidine-2-carboxamide], where the note is “BRM degradation, SW1573 cells, Table 2D, read-out: **Dmax (%) (% degraded)”, the greatest degradation seen (Dmax) was > 75%. In addition, under setting [1], the half-maximal degradation concentration (DC50) is < 2.5 nM.

For the compound `Cc1ncsc1-c1ccc([C@H](C)NC(=O)[C@@H]2C[C@@H](O)CN2C(=O)[C@@H](c2cc(N3CCC4(CCN(C[C@H]5C[C@H](Oc6cc(N7C8CCC7CN(c7cc(-c9ccccc9O)nnc7N)C8)ccn6)C5)CC4)CC3)no2)C(C)C)cc1` [compound 646, (2S,4R)-1-((2R)-2-(3-(9-(((1r,3R)-3-((4-(3-(3-amino-6-(2-hydroxyphenyl)pyridazin-4-yl)-3,8-diazabicyclo[3.2.1]octan-8-yl)pyridin-2-yl)oxy)cyclobutyl)methyl)-3,9-diazaspiro[5.5]undecan-3-yl)isoxazol-5-yl)-3-methylbutanoyl)-4-hydroxy-N-((S)-1-(4-(4-methylthiazol-5-yl)phenyl)ethyl)pyrrolidine-2-carboxamide], the DC50 under setting [2] is < 2.5 nM. Further, the Dmax (BRM degradation, SW1573 cells, read-out: Dmax (% degraded)) was > 75%.

Take `Cc1ncsc1-c1ccc([C@H](C)NC(=O)[C@@H]2C[C@@H](O)CN2C(=O)[C@@H](c2cc(OCCN3CCC(O[C@H]4C[C@H](C#C[C@@H](C)n5cc(-c6cc(-c7ccccc7O)nnc6N)cn5)C4)CC3)no2)C(C)C)cc1` [compound 414, (2S,4R)-1-((R)-2-(3-(2-(4-((1R,3R)-3-((R)-3-(4-(3-amino-6-(2-hydroxyphenyl)pyridazin-4-yl)-1 H-pyrazol-1-yl)but-1-yn-1-yl)cyclobutoxy)piperidin-1-yl)ethoxy)isoxazol-5-yl)-3-methylbutanoyl)-4-hydroxy-N-((S)-1-(4-(4-methylthiazol-5-yl)phenyl)ethyl)pyrrolidine-2-carboxamide]: the maximal degradation (Dmax) (SW1573, % degraded, when tested at the top concentration of between 0.3 and 10 μM, read-out: BRM Dmax (%)) was > 75%. Further, the DC50 (degradation of BRM, read-out: BRM DC50) was < 2.5 nM.

Consider `Cc1cc([C@@H](C(=O)N2C[C@H](O)C[C@H]2C(=O)N[C@@H](C)c2ccc(-c3scnc3C)cc2)[C@H](C)COCCCCn2cc(-c3cc(-c4ccccc4O)nnc3N)cn2)on1` [compound 557, (2S,4R)-1-((2S,3S)-4-(4-(4-(3-amino-6-(2-hydroxyphenyl)pyridazin-4-yl)-1H-pyrazol-1-yl)butoxy)-3-methyl-2-(3-methylisoxazol-5-yl)butanoyl)-4-hydroxy-N-((S)-1-(4-(4-methylthiazol-5-yl)phenyl)ethyl) pyrrolidine-2-carboxamide], for which, under setting [1], the DC50 is > 30 nM.

As to `Cc1ncsc1-c1ccc([C@H](C)NC(=O)[C@@H]2C[C@@H](O)CN2C(=O)[C@@H](c2cc(OCCC3CCN(C(=O)[C@H]4C[C@@H](CN5CCC(n6cc(-c7cc(-c8ccccc8O)nnc7N)cn6)CC5)C4)CC3)no2)C(C)C)cc1` [compound 466, (2S,4R)-1-((R)-2-(3-(2-(1-((1s,3S)-3-((4-(4-(3-amino-6-(2-hydroxyphenyl)pyridazin-4-yl)-1H-pyrazol-1-yl)piperidin-1-yl)methyl)cyclobutane-1-carbonyl)piperidin-4-yl)ethoxy)isoxazol-5-yl)-3-methylbutanoyl)-4-hydroxy-N-((S)-1-(4-(4-methylthiazol-5-yl)phenyl)ethyl)pyrrolidine-2-carboxamide], the 50% degradation concentration (DC50) (target protein degradation, read-out: BRM DC50) was > 30 nM.

With `Cc1ncsc1-c1ccc([C@H](C)NC(=O)[C@@H]2C[C@@H](O)CN2C(=O)[C@H](c2cc(OCCC3CCN(C[C@H]4C[C@H](N5CCC(C(C)n6cc(-c7cc(-c8ccccc8O)nnc7N)cn6)CC5)C4)CC3)no2)C(C)C)cc1` (stereo partly drawn) [compound 619, (2S,4R)-1-((2S)-2-(3-(2-(1-(((1r,3S)-3-(4-(1-(4-(3-amino-6-(2-hydroxyphenyl)pyridazin-4-yl)-1H-pyrazol-1-yl)ethyl)piperidin-1-yl)cyclobutyl)methyl)piperidin-4-yl)ethoxy)isoxazol-5-yl)-3-methylbutanoyl)-4-hydroxy-N-((S)-1-(4-(4-methylthiazol-5-yl)phenyl)ethyl)pyrrolidine-2-carboxamide], the half-maximal degradation concentration (DC50) under setting [1] was > 30 nM.

For “(2S,4R)-1-((2R)-2-(3-(2-(4-((1r,3R)- 3-((4-(3-(3-amino-6-(2- hydroxyphenyl)pyridazin-4-yl)-3,8- diazabicyclo[3.2.1]octan-8- yl)pyridin-2- yl)oxy)cyclobutoxy)piperidin-1- yl)ethoxy)isoxazol-5-yl)-3- methylbutanoyl)-4-hydroxy-N-(4-(4- methylthiazol-5- yl)benzyl)pyrrolidine-2-carboxamide [compound 146]”, the DC50 under setting [2] is < 2.5 nM. Further, under “BRM degradation, SW1573 cells, when tested at the top concentration of between 0.3 and 10 μM”, the “Dmax (%) (% degraded)” value is on record as “A (A > 75)”.

Turning to `COc1cc(C(C(=O)N2C[C@H](O)C[C@H]2C(=O)N[C@@H](C)c2ccc(-c3scnc3C)cc2)C(C)CC(=O)N(C)CCOc2cc(N3C4CCC3CN(c3cc(-c5ccccc5O)nnc3N)C4)ccn2)on1` (stereo partly drawn) [compound 289, (2S,4R)-1-(5-((2-((4-(3-(3-amino-6-(2-hydroxyphenyl)pyridazin-4-yl)-3,8-diazabicyclo[3.2.1]octan-8-yl)pyridin-2-yl)oxy)ethyl)(methyl)amino)-2-(3-methoxyisoxazol-5-yl)-3-methyl-5-oxopentanoyl)-4-hydroxy-N-((S)-1-(4-(4-methylthiazol-5-yl)phenyl)ethyl)pyrrolidine-2-carboxamide], the DC50 under setting [2] was > 30 nM.

In the case of `Cc1ncsc1-c1ccc([C@H](C)NC(=O)[C@@H]2C[C@@H](O)CN2C(=O)[C@H](c2cc(OCCC#Cc3ccc(OC4CC(Oc5cc(N6C7CC[C@@H]6CN(c6cc(-c8ccccc8O)nnc6N)C7)ccn5)C4)cn3)no2)C(C)C)cc1` (stereo partly drawn) [compound 226, (2S,4R)-1-((2S)-2-(3-((4-(5-((1r,3r)-3-((4-(3-(3-amino-6-(2-hydroxyphenyl)pyridazin-4-yl)-3,8-diazabicyclo[3.2.1]octan-8-yl)pyridin-2-yl)oxy)cyclobutoxy)pyridin-2-yl)but-3-yn-1-yl)oxy)isoxazol-5-yl)-3-methylbutanoyl)-4-hydroxy-N-((S)-1-(4-(4-methylthiazol-5-yl)phenyl)ethyl)pyrrolidine-2-carboxamide], the half-maximal degradation concentration (DC50) under setting [2] was in the range of 10 to 30 nM. Where the note is “BRM degradation, SW1573 cells, tested at the top concentration of between 0.3 and 10 μM”, the “Dmax (%) (% degraded)” value is “A (A > 75)”.

For `Cc1ncsc1-c1ccc([C@H](C)NC(=O)[C@@H]2C[C@@H](O)CN2C(=O)[C@@H](c2cc(OCC#Cc3ncc(O[C@H]4C[C@H](Oc5cc(N6C7CCC6CN(c6cc(-c8ccccc8O)nnc6N)C7)ccn5)C4)cn3)no2)C(C)C)cc1` [compound 232, (2S,4R)-1-((2R)-2-(3-((3-(5-((1r,3R)-3-((4-(3-(3-amino-6-(2-hydroxyphenyl)pyridazin-4-yl)-3,8-diazabicyclo[3.2.1]octan-8-yl)pyridin-2-yl)oxy)cyclobutoxy)pyrimidin-2-yl)prop-2-yn-1-yl)oxy)isoxazol-5-yl)-3-methylbutanoyl)-4-hydroxy-N-((S)-1-(4-(4-methylthiazol-5-yl)phenyl)ethyl)pyrrolidine-2-carboxamide], the DC50 under setting [2] was < 2.5 nM. Moreover, for the setting “BRM degradation, SW1573 cells, tested at the top concentration of between 0.3 and 10 μM, read-out: Dmax (%) (% degraded)”, the Dmax is > 75%.

For the compound `Cc1ncsc1-c1ccc([C@H](C)NC(=O)[C@@H]2C[C@@H](O)CN2C(=O)[C@@H](c2cc(OCCC3CCN(CCOc4cc(N5C6CCC5CN(c5cc(-c7ccccc7O)nnc5N)C6)ccn4)CC3)no2)C(C)C)cc1` [compound 511, (2S,4R)-1-((2R)-2-(3-(2-(1-(2-((4-(3-(3-amino-6-(2-hydroxyphenyl)pyridazin-4-yl)-3,8-diazabicyclo[3.2.1]octan-8-yl)pyridin-2-yl)oxy)ethyl)piperidin-4-yl)ethoxy)isoxazol-5-yl)-3-methylbutanoyl)-4-hydroxy-N-((S)-1-(4-(4-methylthiazol-5-yl)phenyl)ethyl)pyrrolidine-2-carboxamide], the half-maximal degradation concentration (DC50) (BRM degradation, read-out: BRM DC50) was > 30 nM.

On to `Cc1ncsc1-c1ccc([C@@H](NC(=O)[C@@H]2C[C@@H](O)CN2C(=O)[C@H](c2cc(N3CCC(CN4CCC(O[C@H]5C[C@H](Oc6cc(N7C8CCC7CN(c7cc(-c9ccccc9O)nnc7N)C8)ccn6)C5)CC4)CC3)no2)C(C)C)C(=O)N(C)C2CCC2)cc1` [compound 611, (2S,4R)-1-((2S)-2-(3-(4-((4-((1r,3r)-3-((4-(3-(3-amino-6-(2-hydroxyphenyl)pyridazin-4-yl)-3,8-diazabicyclo[3.2.1]octan-8-yl)pyridin-2-yl)oxy)cyclobutoxy)piperidin-1-yl)methyl)piperidin-1-yl)isoxazol-5-yl)-3-methylbutanoyl)-N-((R)-2-(cyclobutyl(methyl)amino)-1-(4-(4-methylthiazol-5-yl)phenyl)-2-oxoethyl)-4-hydroxypyrrolidine-2-carboxamide], for which, under setting [1], the DC50 was > 30 nM.
